From patent US11517516B2, “Use of ester derivative of tryptophan as deodorant and/or perfume agent” (L'oreal, priority 2014, dated 2022)

How the values were obtained:
[1] = ex-vivo olfactory evaluation test on incubated sweat; conditions: for effect on the unpleasant odor: compared to the negative control (incubated sweat alone), concentrations as tested; for comparison of anti-odor activity, compound 1 versus ethyl N-acetyl-L-tryptophanate: equivalent dose, several concentrations (0.1%, 0.5%, 1%)
Experimental: The deodorant activity was evaluated in the ex-vivo olfactory evaluation test, on incubated sweat.
Tryptophan ethyl ester hydrochloride (compound 1 of the example A-1) was evaluated at various concentrations in a pool of fresh sweat.
The samples were prepared in 10-ml headspace screw bottles, they are incubated at 35° C. for 24 h under stirring. A sample of sweat with 1 mg of anhydrous aluminum hydroxychloride (ACH) in 1 ml of sweat (i.e. 0.1%) is incubated in order to serve as a positive reference (little odor) and a sample of sweat alone is incubated to serve as a negative reference (unpleasant odor).
The samples after incubation are evaluated olfactively by a panel of several people in a blind test on the headspace bottles. The incubated samples of sweat containing ACH and sweat alone are evaluated at the same time in order to be used respectively as […].
3 parameters are evaluated on a scale from 0 to 10: • The residual of the unpleasant odor with 0 for not very unpleasant (positive reference) and 10 for very unpleasant odor (negative reference). • The total power of the odor with 0 for little power and 10 for very powerful. • The pleasantness of the odor with 0 for not very pleasant and 10 for very pleasant.

[2] = test system: Corynebacterium xerosis CIP 5216; experiment: killing test: number of viable micro-organisms after contact; assay type: cell-based; conditions: 0.5%; for viable micro-organisms, CFU/g of preparation: 35° C., inoculum 1.4E7
From the text: The anti-microbial activity of Tryptophan ethyl ester hydrochloride (compound 1) was valuated in vitro on Corynebacterium xerosis (killing test, quantity of micro-organisms killed). Purpose of test: Quantitative determination of the activity of a cosmetic starting material with respect to Corynebacterium xerosis, a micro-organism involved in the phenomena linked to underarm odor. This micro-organism is placed in optimum growth conditions. Protocol: The model strain used is: Corynebacterium xerosis CIP 5216 (bacteria) The strain is placed into contact with the starting material to be tested in a suitable liquid culture medium. The dilutions of the compounds under evaluation are performed in agar at 1:1000, making it possible, for dispersible compounds under evaluation, to do away with the use of a solvent which could introduce bias in the evaluation of the compounds. In parallel, a growth control, in which the starting material to be tested is replaced with diluent, is prepared in the same conditions. The samples are placed in a rotating incubator at 35° C. and maintained under stirring for the entire duration of the test. After 2, 6 and 24 hours of contact, the number of viable micro-organisms remaining in the mixture is evaluated. The results are expressed as a logarithm of the number of micro-organisms per milliliter of mixture.

[3] = Table 3, 0.5% in incubated sweat, scale 0 to 10, panel of 6
[4] = incubated sweat, release of odorous volatile molecules
[5] = Table 5, 0.5% in incubated sweat, scale 0 to 10
[6] = Table 2, 0.1% in sweat, scale 0 to 10, panel of 6
[7] = Table 2, 0.5% in sweat, scale 0 to 10, panel of 6
[8] = Table 2, 1% in sweat, scale 0 to 10, panel of 6
[9] = Table 1, 0.1% in sweat, 35° C. 24 h, scale 0 to 10, panel of 6
[10] = Table 3, positive reference, 1 mg in 1 ml of sweat (0.1%), scale 0 to 10
[11] = Table 4, positive reference, 1 mg in 1 ml of sweat (0.1%), scale 0 to 10
[12] = Table 5, positive reference, 1 mg in 1 ml of sweat (0.1%), scale 0 to 10
[13] = Table 4, 0.3% in incubated sweat, scale 0 to 10
[14] = Table 1, 0.5% in sweat, scale 0 to 10, panel of 6
[15] = Table 1, 1% in sweat, scale 0 to 10, panel of 6

Question: Which “Pleasantness of the odor” value [1, 3] does the source give for `CC/C=C\CCOC(=O)[C@@H](N)Cc1c[nH]c2ccccc12.Cl` [Compound 4, Tryptophan cis-3-hexenyl ester hydrochloride] here?
Answer: 6

Question: And the Power [1, 3]?
Answer: 7

Question: And the Residual unpleasant odor [1, 3]?
Answer: 2.5

Question: What about the “effect on the unpleasant odor” value [1] of the same molecule?
Answer: effect of reducing the unpleasant odor

Question: And the “Pleasantness of the odor” value [1, 4]?
Answer: contribute to the pleasantness of the odor

Question: Which results are given for `N[C@@H](Cc1c[nH]c2ccccc12)C(=O)OCc1ccccc1` [Compound 7, Tryptophan benzyl ester]?
Answer: Pleasantness of the odor [1, 5]: 3.7; Power [1, 5]: 4.3; Residual unpleasant odor [1, 5]: 3; effect on the unpleasant odor [1]: effect on the reduction of the unpleasant odor; Pleasantness of the odor [1, 4]: generate a pleasant odor

Question: For `CCOC(=O)[C@H](Cc1c[nH]c2ccccc12)NC(C)=O` [Compound 2, ethyl N-Acetyl-L-tryptophanate, reference compound], which Power [1, 6] is on record?
Answer: 6.2

Question: What about the Residual unpleasant odor [1, 6] of the same molecule?
Answer: 6.8

Question: What about the Power [1, 7] of the same molecule?
Answer: 6.8

Question: And the Residual unpleasant odor [1, 7]?
Answer: 7.5

Question: What about the Power [1, 8] of the same molecule?
Answer: 6.6

Question: And the Residual unpleasant odor [1, 8]?
Answer: 7

Question: What about the “comparison of anti-odor activity, compound 1 versus ethyl N-acetyl-L-tryptophanate” value ([1]; incubated sweat) of the same molecule?
Answer: not as effective as Tryptophan ethyl ester hydrochloride

Question: With “anhydrous aluminum hydroxychloride [ACH, reference compound]” as the molecule, how does the Power [1, 9] read?
Answer: 1.6

Question: And the Residual unpleasant odor [1, 9]?
Answer: 0.5

Question: What about the Power [1, 6] of the same molecule?
Answer: 1.6

Question: And the Residual unpleasant odor [1, 6]?
Answer: 0.5

Question: What about the “Pleasantness of the odor” value [1, 10] of the same molecule?
Answer: 4

Question: What about the Power [1, 10] of the same molecule?
Answer: 0.8

Question: What about the Residual unpleasant odor [1, 10] of the same molecule?
Answer: 0.3

Question: What about the “Pleasantness of the odor” value [1, 11] of the same molecule?
Answer: 3.7

Question: And the Power [1, 11]?
Answer: 2.7

Question: And the Residual unpleasant odor [1, 11]?
Answer: 2.7

Question: What about the “Pleasantness of the odor” value [1, 12] of the same molecule?
Answer: 5

Question: What about the Power [1, 12] of the same molecule?
Answer: 2

Question: And the Residual unpleasant odor [1, 12]?
Answer: 1.7

Question: What does the source list for `CCCCCCCCOC(=O)[C@@H](N)Cc1c[nH]c2ccccc12.Cl` [Compound 6, Tryptophan octyl ester hydrochloride]?
Answer: Pleasantness of the odor [1, 13]: 7; Power [1, 13]: 7; Residual unpleasant odor [1, 13]: 0.3; Pleasantness of the odor [1, 5]: 7.7; Power [1, 5]: 6.3; Residual unpleasant odor [1, 5]: 0.3; effect on the unpleasant odor [1]: effect of reducing the unpleasant odor; Pleasantness of the odor [1, 4]: generates a pleasant odor

Question: With `CC(C)(C)OC(=O)[C@@H](N)Cc1c[nH]c2ccccc12.Cl` [Compound 8, Tryptophan tertiobutyl ester hydrochloride] as the molecule, how does the “Pleasantness of the odor” value [1, 5] read?
Answer: 5.7

Question: And the Power [1, 5]?
Answer: 4

Question: What about the Residual unpleasant odor [1, 5] of the same molecule?
Answer: 1.7

Question: And the “effect on the unpleasant odor” value [1]?
Answer: effect on the reduction of the unpleasant odor

Question: And the “Pleasantness of the odor” value [1, 4]?
Answer: generate a pleasant odor

Question: With `CC/C=C\CCOC(=O)[C@@H](N)Cc1c[nH]c2ccccc12` [Compound 3, Tryptophan cis-3-hexenyl ester] as the molecule, how does the “Pleasantness of the odor” value [1, 3] read?
Answer: 7.8

Question: What about the Power [1, 3] of the same molecule?
Answer: 6.8

Question: And the Residual unpleasant odor [1, 3]?
Answer: 1

Question: And the “effect on the unpleasant odor” value [1]?
Answer: effect of reducing the unpleasant odor

Question: And the “Pleasantness of the odor” value [1, 4]?
Answer: contribute to the pleasantness of the odor

Question: Which “Pleasantness of the odor” value [1, 3] does the source give for `C=CC(C)CCCC(C)(C)OC(=O)[C@@H](N)Cc1c[nH]c2ccccc12` (stereo partly drawn) [Compound 5, Tryptophan dihydromyrcenyl ester] here?
Answer: 5.8

Question: And the Power [1, 3]?
Answer: 5.5

Question: And the Residual unpleasant odor [1, 3]?
Answer: 2.5

Question: What about the “effect on the unpleasant odor” value [1] of the same molecule?
Answer: effect of reducing the unpleasant odor

Question: And the “Pleasantness of the odor” value [1, 4]?
Answer: contribute to the pleasantness of the odor

Question: Which Power [1, 9] does the source give for `CCOC(=O)[C@@H](N)Cc1c[nH]c2ccccc12.Cl` [Compound 1, L-tryptophan ethyl ester chlorhydride] here?
Answer: 3.2

Question: What about the Residual unpleasant odor [1, 9] of the same molecule?
Answer: 3.4

Question: What about the Power [1, 14] of the same molecule?
Answer: 2.8

Question: And the Residual unpleasant odor [1, 14]?
Answer: 3.2

Question: And the Power [1, 15]?
Answer: 1.4

Question: What about the Residual unpleasant odor [1, 15] of the same molecule?
Answer: 0.6

Question: What about the Power [1, 6] of the same molecule?
Answer: 3.2

Question: What about the Residual unpleasant odor [1, 6] of the same molecule?
Answer: 3.4

Question: And the Power [1, 7]?
Answer: 2.8

Question: What about the Residual unpleasant odor [1, 7] of the same molecule?
Answer: 3.2

Question: What about the Power [1, 8] of the same molecule?
Answer: 1.4

Question: And the Residual unpleasant odor [1, 8]?
Answer: 0.6

Question: What about the “Pleasantness of the odor” value [1, 13] of the same molecule?
Answer: 5.3

Question: And the Power [1, 13]?
Answer: 3

Question: And the Residual unpleasant odor [1, 13]?
Answer: 1.7

Question: And the “Pleasantness of the odor” value [1, 5]?
Answer: 5.7

Question: What about the Power [1, 5] of the same molecule?
Answer: 3.3

Question: What about the Residual unpleasant odor [1, 5] of the same molecule?
Answer: 1.3

Question: And the “effect on the unpleasant odor” value [1]?
Answer: clear decrease in the unpleasant odor

Question: And the “comparison of anti-odor activity, compound 1 versus ethyl N-acetyl-L-tryptophanate” value ([1]; incubated sweat)?
Answer: superiority

Question: What about the “comparison of anti-odor activity, compound 1 versus ethyl N-acetyl-L-tryptophanate” value ([1]; incubated sweat, listed as Tryptophan ester hydrochloride) of the same molecule?
Answer: better anti-odor activity than the Ethyl N-acetyl-L-tryptophanate

Question: And the “anti-microbial activity on C. xerosis” value ([2]; in terms of the growth control)?
Answer: excellent anti-microbial activity

Question: And the “viable micro-organisms, CFU/g of preparation” value (“viable micro-organisms, CFU/g” for short) ([2]; 2 hours of contact)?
Answer: 4.6E3 CFU/g of preparation

Question: And the “viable micro-organisms, CFU/g” value ([2]; 6 hours of contact)?
Answer: 4.0E1 CFU/g of preparation

Question: And the “viable micro-organisms, CFU/g” value ([2]; 24 hours of contact)?
Answer: <20 CFU/g of preparation

Question: And the “reduction in terms of the growth control” value ([2]; after 2 h of contact)?
Answer: 3.3 Log Units

Question: What about the “reduction in terms of the growth control” value ([2]; after 6 h of contact) of the same molecule?
Answer: 5.4 Log

Question: And the “reduction in terms of the growth control” value ([2]; after 24 h of contact)?
Answer: greater than or equal to 6.6 Log
